From patent US20060094702A1, “5-HT4 receptor antagonists” (SMITHKLINE BEECHAM P.L.C., priority 1993, published 2006)

Molecular target: T1, 5-HT4 receptor (Cavia porcellus, UniProt O70528)
T1 construct: Longitudinal muscle-myenteric plexus preparations, approximately 3 cm long, are obtained from the distal colon region; from tissue; host or cells: guinea-pig distal colon longitudinal muscle-myenteric plexus
Assay: Guinea pig colon 5-HT4 receptor antagonist activity (5-HT evoked contraction of longitudinal muscle-myenteric plexus)
Conditions: guinea-pig distal colon longitudinal muscle-myenteric plexus; contractions evoked by 5-HT; methiothepin 10^-7M and granisetron 10^-6M present; read-out: pIC50 (-log concentration of antagonist which reduces the contraction by 50%) (converted)
Method: 5-HT4 Receptor Antagonist Activity
Male guinea-pigs, weighing 250-400 g are used. Longitudinal muscle-myenteric plexus preparations, approximately 3 cm long, are obtained from the distal colon region. These are suspended under a 0.5 g load in isolated tissue baths containing Krebs solution bubbled with 5% CO2 in O2 and maintained at 37° C. In all experiments, the Krebs solution also contains methiothepin 10^-7M and granisetron 10^-6M to block effects at 5-HT1, 5-HT2 and 5-HT3 receptors.
After construction of a simple concentration-response curve with 5-HT, using 30 s contact times and a 15 min dosing cycle, a concentration of 5-HT is selected so as to obtain a contraction of the muscle approximately 40-70% maximum(10^-9M approx). The tissue is then alternately dosed every 15 min with this concentration of 5-HT and then with an approximately equi-effective concentration of the nicotine receptor stimulant, dimethylphenylpiperazinium (DMPP). After obtaining consistent responses to both 5-HT and DMPP, increasing concentrations of a putative 5-HT4 receptor antagonist are then added to the bathing solution. The effects of this compound are then determined as a percentage reduction of the contractions evoked by 5-HT or by DMPP. […] A compound which reduces the response to 5-HT but not to DMPP is believed to act as a 5-HT4 receptor antagonist.

T1 sequence (O70528 whole entry): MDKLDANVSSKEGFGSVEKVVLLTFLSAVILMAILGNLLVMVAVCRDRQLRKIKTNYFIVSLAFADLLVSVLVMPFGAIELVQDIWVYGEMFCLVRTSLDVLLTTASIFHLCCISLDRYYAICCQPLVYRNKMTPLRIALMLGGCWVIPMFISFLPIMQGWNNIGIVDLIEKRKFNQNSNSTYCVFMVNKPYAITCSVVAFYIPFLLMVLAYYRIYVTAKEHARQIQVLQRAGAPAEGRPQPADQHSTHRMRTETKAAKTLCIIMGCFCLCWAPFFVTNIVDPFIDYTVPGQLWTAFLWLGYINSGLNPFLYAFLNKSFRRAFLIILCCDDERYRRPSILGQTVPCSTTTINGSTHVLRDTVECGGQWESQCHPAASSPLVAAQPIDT

IC50: 158 nM
Structure (SMILES): CCCCN1CCC(CCC(=O)c2cn(C)c3ccccc23)CC1 [Example 1, 1-(1-Methyl-1H-indol-3-yl)-3-(1-butylpiperidin-4-yl)propan-1-one]
